Data from PubChem BioAssay (NCI).
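Cells were grown in 96-well plates and exposed to each compound for 48 hours at five concentrations; endpoints were interpolated linearly between bracketing concentrations, or set to the highest concentration if not reached. TGI is the concentration that stops growth completely.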

What was measured:
Assay in all cases: inhibition of tumour cell growth, NCI panel, 48 h
HCT-15 colon = system: HCT-15 colon
NCI/ADR-RES ovarian = system: NCI/ADR-RES ovarian
PC-3 prostate = system: PC-3 prostate
SN12C renal = system: SN12C renal
U251 CNS = system: U251 CNS
KM12 colon = system: KM12 colon
HOP-62 NSCLC = system: HOP-62 NSCLC
A549 NSCLC = system: A549 NSCLC
DU-145 prostate = system: DU-145 prostate
M14 melanoma = system: M14 melanoma
BT-549 breast = system: BT-549 breast
HS 578T breast = system: HS 578T breast
OVCAR-5 ovarian = system: OVCAR-5 ovarian
SK-OV-3 ovarian = system: SK-OV-3 ovarian
SF-268 CNS = system: SF-268 CNS
MDA-N = system: MDA-N
NCI-H460 lung = system: NCI-H460 lung
HOP-92 NSCLC = system: HOP-92 NSCLC
HL-60(TB) leukemia = system: HL-60(TB) leukemia
COLO 205 colon = system: COLO 205 colon
A498 renal = system: A498 renal
TK-10 renal = system: TK-10 renal
SR leukemia = system: SR leukemia
SNB-75 CNS = system: SNB-75 CNS
UACC-62 melanoma = system: UACC-62 melanoma
NCI-H522 lung = system: NCI-H522 lung
CCRF-CEM leukemia = system: CCRF-CEM leukemia
SF-539 CNS = system: SF-539 CNS
SF-295 CNS = system: SF-295 CNS
MDA-MB-231 breast = system: MDA-MB-231 breast
UO-31 renal = system: UO-31 renal
NCI-H226 lung = system: NCI-H226 lung
UACC-257 melanoma = system: UACC-257 melanoma
MCF7 breast = system: MCF7 breast
LOX IMVI melanoma = system: LOX IMVI melanoma
MOLT-4 leukemia = system: MOLT-4 leukemia
HCC-2998 colon = system: HCC-2998 colon
RXF 393 renal = system: RXF 393 renal
SW-620 colon = system: SW-620 colon
IGROV1 ovarian = system: IGROV1 ovarian
HCT-116 colon = system: HCT-116 colon
SNB-19 CNS = system: SNB-19 CNS
SK-MEL-2 melanoma = system: SK-MEL-2 melanoma
OVCAR-3 ovarian = system: OVCAR-3 ovarian
ACHN renal = system: ACHN renal
HT29 colon = system: HT29 colon
MALME-3M melanoma = system: MALME-3M melanoma
786-0 renal = system: 786-0 renal
OVCAR-8 ovarian = system: OVCAR-8 ovarian
T-47D breast = system: T-47D breast
SK-MEL-5 melanoma = system: SK-MEL-5 melanoma
K-562 leukemia = system: K-562 leukemia
EKVX NSCLC = system: EKVX NSCLC
MDA-MB-435 = system: MDA-MB-435
NCI-H23 lung = system: NCI-H23 lung
SK-MEL-28 melanoma = system: SK-MEL-28 melanoma
RPMI-8226 leukemia = system: RPMI-8226 leukemia
OVCAR-4 ovarian = system: OVCAR-4 ovarian
CAKI-1 renal = system: CAKI-1 renal

Measured: TGI

CNC1C(OC2C(OC3C(O)C(O)C(O)C(O)C3O)OC(C)C2(O)CO)OC(CO)C(O)C1O (configuration not stated) (tested in a mixture with another compound)
> 100 µM: HCT-15 colon | NCI/ADR-RES ovarian | PC-3 prostate | SN12C renal | U251 CNS | KM12 colon | HOP-62 NSCLC | A549 NSCLC | DU-145 prostate | M14 melanoma | BT-549 breast | HS 578T breast | OVCAR-5 ovarian | SK-OV-3 ovarian | SF-268 CNS | MDA-N | NCI-H460 lung | HOP-92 NSCLC | HL-60(TB) leukemia | COLO 205 colon | A498 renal | TK-10 renal | SR leukemia | SNB-75 CNS | UACC-62 melanoma | NCI-H522 lung | CCRF-CEM leukemia | SF-539 CNS | SF-295 CNS | MDA-MB-231 breast | UO-31 renal | NCI-H226 lung | UACC-257 melanoma | MCF7 breast | LOX IMVI melanoma | MOLT-4 leukemia | HCC-2998 colon | RXF 393 renal | SW-620 colon | IGROV1 ovarian | HCT-116 colon | SNB-19 CNS | SK-MEL-2 melanoma | OVCAR-3 ovarian | ACHN renal | HT29 colon | MALME-3M melanoma | 786-0 renal | OVCAR-8 ovarian | T-47D breast | SK-MEL-5 melanoma | K-562 leukemia | EKVX NSCLC | MDA-MB-435 | NCI-H23 lung | SK-MEL-28 melanoma | RPMI-8226 leukemia | OVCAR-4 ovarian

O=C(O)C(F)(OC(F)(F)C(F)(OC(F)(F)C(F)(F)C(F)(F)F)C(F)(F)F)C(F)(F)F (configuration not stated)
> 100 µM: HCT-15 colon | NCI/ADR-RES ovarian | PC-3 prostate | SN12C renal | U251 CNS | KM12 colon | HOP-62 NSCLC | A549 NSCLC | DU-145 prostate | M14 melanoma | BT-549 breast | HS 578T breast | OVCAR-5 ovarian | SK-OV-3 ovarian | SF-268 CNS | MDA-N | NCI-H460 lung | HOP-92 NSCLC | HL-60(TB) leukemia | COLO 205 colon | A498 renal | TK-10 renal | SR leukemia | SNB-75 CNS | UACC-62 melanoma | NCI-H522 lung | CCRF-CEM leukemia | SF-539 CNS | SF-295 CNS | MDA-MB-231 breast | UO-31 renal | NCI-H226 lung | UACC-257 melanoma | MCF7 breast | LOX IMVI melanoma | MOLT-4 leukemia | HCC-2998 colon | RXF 393 renal | SW-620 colon | IGROV1 ovarian | HCT-116 colon | SNB-19 CNS | SK-MEL-2 melanoma | OVCAR-3 ovarian | ACHN renal | HT29 colon | MALME-3M melanoma | 786-0 renal | OVCAR-8 ovarian | T-47D breast | SK-MEL-5 melanoma | CAKI-1 renal | K-562 leukemia | EKVX NSCLC | MDA-MB-435 | NCI-H23 lung | SK-MEL-28 melanoma | RPMI-8226 leukemia | OVCAR-4 ovarian
